Source: EP1487791B1, “A NOVEL ANTIFUNGAL MOLECULE 2-(3,4-DIMETHYL-2,5-DIHYDRO-1H-PYRROL-2-YL)- METHYLETHYL PENTANOATE” (priority 2002, dated 2003)

Columns and labels:
RAW cells = type: cell-based
Method: The in vitro toxicity of the active molecule was studied by MTT assay using RAW cells (Mossman, T., 1983, J. Immunol. Methods, 65, 55-63).
The stock culture of RAW cells was obtained from National Facility for Cell and Tissue Culture, Pune. Cells were maintained in RPMI - 1640 medium supplemented with glutamine (2.3 gm/L), fetal calf serum (10% v/v) and gentamycin (50.0 mg/L) at 37°C in Nuair IR Autoflow water Jacketed carbon dioxide incubator.
The stock solution of the compound was prepared by dissolving 2.5 mg of the purified compound in minimum amount of DMSO and then diluted with double distilled water to make the final volume 1.0-ml. The different concentrations ranging from 1250.0 µg/ml to 19.5 µg/ml were tested in the cytotoxicity assay.
The cells were harvested at the log phase of growth confluency from the flask. The homogeneous suspension of cells was prepared in 2.0 ml of culture medium. The number of cells in the suspension was counted using a hemocytometer and the cell suspension was diluted in such a way so as to obtain 5x10^7 viable cells per ml. The viability of the cells was checked with trypan blue dye exclusion test. The cytotoxicity assay was performed in 96 wells flat bottom tissue culture plates (Nunc Nunclon). The cells ([…]) in 100.0 µl volume were seeded into each well. The plate was incubated at 37 °C in atmosphere of 5% (v/v) CO2 for 8 h. The wells were examined microscopically for the formation of monolayer of the cells. Various concentrations ranging from 1250.0 µg/ml to 19.5 µg/ml of the compound PC-1 (metelatropinyl ester) were added to the monolayer of cells. In +ve control wells, a known cytotoxic protein obtained from A. fumigatus, was used. […] After lysis of the cells, the plates were read at 540 nm using plate reader (Spectra Max 190, Molecular Device).
The toxicity of the compound was expressed as percentage with respect to that obtained in -ve control sample. The percent cytotoxicity was calculated using the formula given below. % Cytotoxicity = (OD in-ve control-OD in the test)/(OD in-ve control) × 100 [formula] […]

A. fumigatus = experiment: In vivo efficacy, survival in mice model of aspergillosis; set-up: species or system Balb/C mice; conditions: oral; probit of percent survival against log dose
Source text: In vivo efficacy of the compound against A. fumigatus infection was studied in the Balb/C mice of 6-8 weak of age of either sex, weighing 15-20 g each. The mice model of aspergillosis described by Dixon et al (1989), was used to study the effects of compound on in vivo infection of A. fumigatus.
The animals were housed in the micro-barrier cages on sterile bedding and fed ad libitum water and food. The mice were divided into 6 groups and each group contained 8-10 animals. The mice were infected experimentally with A. fumigatus. Three days prior to infection with conidia, mice were injected subcutaneously with 3 doses (250.0 mg/kg/day) of cortisone acetate in 400.0 µl of PBS. On the infection day, each mouse received 2x10^7 conidia by nasal instillation of a single droplet of conidial suspension. […]
A. fumigatus (190/96) isolate was grown on Sabouraud dextrose agar plates at 37 °C for 4 days. […] The number of conidia, was counted and adjusted to 1x10^8 conidia/ml. The viability of the conidia was determined by plating the dilutions of suspensions on Sabouraud dextrose agar. […]
The animals were housed in properly labeled cages and kept under close watch for weight loss and the mortality. The survival rate over a period of 10 days was calculated and the fungal burden in survivors determined (Clemons and Stevens, 1994). […]

SMILES: CCCCC(=O)OC(C)CC1NCC(C)=C1C (stereo not shown) [PC-1, 2-(3,4-dimethyl-2,5-dihydro-1H-pyrrol-2-yl)-1-methylethyl pentanoate]
- concentration completely non-toxic to the cells (RAW cells): up to 312.5 µg/ml
- CT50 (dose cytotoxic to 50% of the cells) (RAW cells; RAW cells, MTT, 12 h): 889.2 µg/mL
- less cytotoxic than the standard antifungal drug such as Amphotericin B (RAW cells; comparison with Amphotericin B): 57.8 times
- ED50 (effective dose required to confer protection in 50% of the animals) (A. fumigatus): 167.0 mg/kg body weight
